{
  "source": "patent US20260285850A1",
  "about": "“SUBSTITUTED OXAZOLIDINONES AND IMIDAZOLINONES AS HERBICIDES” (FMC CORPORATION, priority 2023, published 2026)",
  "type_in_all_cases": "in vivo",
  "key": {"[1]": {"tested_on": "barnyardgrass (Echinochloa crus-galli)", "assay": "Test A preemergence soil spray, visual injury rating 0-100", "settings": "10 days, 0 = no effect, 100 = complete control", "outline": "(§1)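 Preemergence directed soil spray or postemergence spray (2-10 cm, 1-2 leaf); loam/sand mix; compound in non-phytotoxic solvent + surfactant. Greenhouse, 10 d. Visual injury vs untreated, 0 = none, 100 = complete control.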"}, "[2]": {"tested_on": "blackgrass (Alopecurus myosuroides)", "assay": "Test A preemergence soil spray, visual injury rating 0-100", "settings": "10 days, 0 = no effect, 100 = complete control", "outline": "as §1"}, "corn (Zea mays) [3]": {"tested_on": "corn (Zea mays)", "assay": "Test A preemergence soil spray, visual injury rating 0-100", "settings": "10 days, 0 = no effect, 100 = complete control", "outline": "as §1"}, "[4]": {"tested_on": "green foxtail (Setaria viridis)", "assay": "Test A preemergence soil spray, visual injury rating 0-100", "settings": "10 days, 0 = no effect, 100 = complete control", "outline": "as §1"}, "kochia (Bassia scoparia) [5]": {"tested_on": "kochia (Bassia scoparia)", "assay": "Test A preemergence soil spray, visual injury rating 0-100", "settings": "10 days, 0 = no effect, 100 = complete control", "outline": "as §1"}, "[6]": {"tested_on": "oat, wild (wild oat, Avena fatua)", "assay": "Test A preemergence soil spray, visual injury rating 0-100", "settings": "10 days, 0 = no effect, 100 = complete control", "outline": "as §1"}, "[7]": {"tested_on": "palmer (palmer amaranth, palmer pigweed, Amaranthus palmeri)", "assay": "Test A preemergence soil spray, visual injury rating 0-100", "settings": "10 days, 0 = no effect, 100 = complete control", "outline": "as §1"}, "[8]": {"tested_on": "ragweed (common ragweed, Ambrosia artemisiifolia)", "assay": "Test A preemergence soil spray, visual injury rating 0-100", "settings": "10 days, 0 = no effect, 100 = complete control", "outline": "as §1"}, "[9]": {"tested_on": "ryegrass, Italian (italian ryegrass, Lolium multiflorum)", "assay": "Test A preemergence soil spray, visual injury rating 0-100", "settings": "10 days, 0 = no effect, 100 = complete control", "outline": "as §1"}, "soybean (Glycine max) [10]": {"tested_on": "soybean (Glycine max)", "assay": "Test A preemergence soil spray, visual injury rating 0-100", "settings": "10 days, 0 = no effect, 100 = complete control", "outline": "as §1"}, "[11]": {"tested_on": "wheat (Triticum aestivum)", "assay": "Test A preemergence soil spray, visual injury rating 0-100", "settings": "10 days, 0 = no effect, 100 = complete control", "outline": "as §1"}, "[12]": {"tested_on": "barnyardgrass (Echinochloa crus-galli)", "assay": "Test A postemergence application, visual injury rating 0-100", "settings": "10 days", "outline": "as §1"}, "[13]": {"tested_on": "blackgrass (Alopecurus myosuroides)", "assay": "Test A postemergence application, visual injury rating 0-100", "settings": "10 days", "outline": "as §1"}, "corn (Zea mays) [14]": {"tested_on": "corn (Zea mays)", "assay": "Test A postemergence application, visual injury rating 0-100", "settings": "10 days", "outline": "as §1"}, "[15]": {"tested_on": "galium (catchweed bedstraw, Galium aparine)", "assay": "Test A postemergence application, visual injury rating 0-100", "settings": "10 days", "outline": "as §1"}, "[16]": {"tested_on": "green foxtail (Setaria viridis)", "assay": "Test A postemergence application, visual injury rating 0-100", "settings": "10 days", "outline": "as §1"}, "[17]": {"tested_on": "horseweed (Erigeron canadensis)", "assay": "Test A postemergence application, visual injury rating 0-100", "settings": "10 days", "outline": "as §1"}, "kochia (Bassia scoparia) [18]": {"tested_on": "kochia (Bassia scoparia)", "assay": "Test A postemergence application, visual injury rating 0-100", "settings": "10 days", "outline": "as §1"}, "[19]": {"tested_on": "oat, wild (wild oat, Avena fatua)", "assay": "Test A postemergence application, visual injury rating 0-100", "settings": "10 days", "outline": "as §1"}, "[20]": {"tested_on": "palmer (palmer amaranth, palmer pigweed, Amaranthus palmeri)", "assay": "Test A postemergence application, visual injury rating 0-100", "settings": "10 days", "outline": "as §1"}, "[21]": {"tested_on": "ragweed (common ragweed, Ambrosia artemisiifolia)", "assay": "Test A postemergence application, visual injury rating 0-100", "settings": "10 days", "outline": "as §1"}, "[22]": {"tested_on": "ryegrass, Italian (italian ryegrass, Lolium multiflorum)", "assay": "Test A postemergence application, visual injury rating 0-100", "settings": "10 days", "outline": "as §1"}, "soybean (Glycine max) [23]": {"tested_on": "soybean (Glycine max)", "assay": "Test A postemergence application, visual injury rating 0-100", "settings": "10 days", "outline": "as §1"}, "[24]": {"tested_on": "wheat (Triticum aestivum)", "assay": "Test A postemergence application, visual injury rating 0-100", "settings": "10 days", "outline": "as §1"}, "[25]": {"tested_on": "barnyardgrass (Echinochloa crusgalli)", "assay": "Test B flooded paddy test, visual plant response rating 0-100", "settings": "250 g ai/ha, Flood, applied to paddy water, evaluated after 13 days", "outline": "(§2)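 Treatment occurs at the 2-leaf stage by adding compound to floodwater standing 3 cm above the soil, a level kept for the whole test. Plants stay in the greenhouse 13 days before visual comparison with controls.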"}, "[26]": {"tested_on": "ducksalad (Heteranthera limosa)", "assay": "Test B flooded paddy test, visual plant response rating 0-100", "settings": "250 g ai/ha, Flood, applied to paddy water, evaluated after 13 days", "outline": "as §2"}, "rice (Oryza sativa)": {"tested_on": "rice (Oryza sativa)", "assay": "Test B flooded paddy test, visual plant response rating 0-100", "settings": "250 g ai/ha, Flood, applied to paddy water, evaluated after 13 days", "outline": "as §2"}, "[27]": {"tested_on": "sedge, umbrella (small-flower umbrella sedge, Cyperus difformis)", "assay": "Test B flooded paddy test, visual plant response rating 0-100", "settings": "250 g ai/ha, Flood, applied to paddy water, evaluated after 13 days", "outline": "as §2"}, "[28]": {"settings": "31 g ai/ha, postemergence, 0 = no effect, 100 = complete control"}, "[29]": {"settings": "Postemergence, 125 g ai/ha, 0 is no effect, 100 is complete control"}},
  "data": [
    {"smiles": "COC(=O)C1C=CC(NC(=O)C2(C)CN(c3cc(F)cc(Cl)c3)C(=O)O2)C1", "note": "(stereo not shown) [Compound 17]", "values": [
      {"measurement": "Barnyardgrass plant response rating (0-100)", "setting": "[1]; 31 g ai/ha", "result": 80},
      {"measurement": "Barnyardgrass plant response rating (0 to 100 scale)", "setting": "[1]; 125 g ai/ha", "result": 100},
      {"measurement": "Blackgrass plant response rating (0-100)", "setting": "[2]; 31 g ai/ha", "result": 20},
      {"measurement": "Blackgrass plant response rating (0 to 100 scale)", "setting": "[2]; 125 g ai/ha", "result": 70},
      {"measurement": "Corn plant response rating (0-100)", "setting": "corn (Zea mays) [3]; 31 g ai/ha", "result": 20},
      {"measurement": "Corn plant response rating (0 to 100 scale)", "setting": "corn (Zea mays) [3]; 125 g ai/ha", "result": 80},
      {"measurement": "Foxtail, Green plant response rating (0-100)", "setting": "[4]; 31 g ai/ha", "result": 50},
      {"measurement": "Foxtail, Green plant response rating (0 to 100 scale)", "setting": "[4]; 125 g ai/ha", "result": 100},
      {"measurement": "Kochia plant response rating (0-100)", "setting": "kochia (Bassia scoparia) [5]; 31 g ai/ha", "result": 50},
      {"measurement": "Kochia plant response rating (0 to 100 scale)", "setting": "kochia (Bassia scoparia) [5]; 125 g ai/ha", "result": 100},
      {"measurement": "Oat, Wild plant response rating (0-100)", "setting": "[6]; 31 g ai/ha", "result": 10},
      {"measurement": "Oat, Wild plant response rating (0 to 100 scale)", "setting": "[6]; 125 g ai/ha", "result": 80},
      {"measurement": "Amaranth, Palmer plant response rating (0-100)", "setting": "[7]; 31 g ai/ha", "result": 70},
      {"measurement": "Amaranth, Palmer plant response rating (0 to 100 scale)", "setting": "[7]; 125 g ai/ha", "result": 100},
      {"measurement": "Ragweed plant response rating (0-100)", "setting": "[8]; 31 g ai/ha", "result": 20},
      {"measurement": "Ragweed plant response rating (0 to 100 scale)", "setting": "[8]; 125 g ai/ha", "result": 40},
      {"measurement": "Ryegrass, Italian plant response rating (0-100)", "setting": "[9]; 31 g ai/ha", "result": 90},
      {"measurement": "Ryegrass, Italian plant response rating (0 to 100 scale)", "setting": "[9]; 125 g ai/ha", "result": 90},
      {"measurement": "Soybean plant response rating (0-100)", "setting": "soybean (Glycine max) [10]; 31 g ai/ha", "result": 0},
      {"measurement": "Soybean plant response rating (0 to 100 scale)", "setting": "soybean (Glycine max) [10]; 125 g ai/ha", "result": 80},
      {"measurement": "Wheat plant response rating (0-100)", "setting": "[11]; 31 g ai/ha", "result": 80},
      {"measurement": "Wheat plant response rating (0 to 100 scale)", "setting": "[11]; 125 g ai/ha", "result": 90},
      {"measurement": "Barnyardgrass plant response rating (0-100)", "setting": "[12]; [28]", "result": 100},
      {"measurement": "Barnyardgrass plant response rating (0 to 100 scale)", "setting": "[12]; [29]", "result": 100},
      {"measurement": "Blackgrass plant response rating (0-100)", "setting": "[13]; [28]", "result": 60},
      {"measurement": "Blackgrass plant response rating (0 to 100 scale)", "setting": "[13]; [29]", "result": 90},
      {"measurement": "Corn plant response rating (0-100)", "setting": "corn (Zea mays) [14]; [28]", "result": 70},
      {"measurement": "Corn plant response rating (0 to 100 scale)", "setting": "corn (Zea mays) [14]; [29]", "result": 100},
      {"measurement": "Galium plant response rating (0-100)", "setting": "[15]; [28]", "result": 80},
      {"measurement": "Galium plant response rating (0 to 100 scale)", "setting": "[15]; [29]", "result": 80},
      {"measurement": "Foxtail, Green plant response rating (0-100)", "setting": "[16]; [28]", "result": 80},
      {"measurement": "Foxtail, Green plant response rating (0 to 100 scale)", "setting": "[16]; [29]", "result": 90},
      {"measurement": "Horseweed plant response rating (0-100)", "setting": "[17]; [28]", "result": 30},
      {"measurement": "Horseweed plant response rating (0 to 100 scale)", "setting": "[17]; [29]", "result": 70},
      {"measurement": "Kochia plant response rating (0-100)", "setting": "kochia (Bassia scoparia) [18]; [28]", "result": 60},
      {"measurement": "Kochia plant response rating (0 to 100 scale)", "setting": "kochia (Bassia scoparia) [18]; [29]", "result": 70},
      {"measurement": "Oat, Wild plant response rating (0-100)", "setting": "[19]; [28]", "result": 90},
      {"measurement": "Oat, Wild plant response rating (0 to 100 scale)", "setting": "[19]; [29]", "result": 90},
      {"measurement": "Amaranth, Palmer plant response rating (0-100)", "setting": "[20]; [28]", "result": 70},
      {"measurement": "Amaranth, Palmer / Pigweed, Palmer plant response rating (0 to 100 scale)", "setting": "[20]; [29]", "result": 90},
      {"measurement": "Ragweed plant response rating (0-100)", "setting": "[21]; [28]", "result": 30},
      {"measurement": "Ragweed plant response rating (0 to 100 scale)", "setting": "[21]; [29]", "result": 80},
      {"measurement": "Ryegrass, Italian plant response rating (0-100)", "setting": "[22]; [28]", "result": 90},
      {"measurement": "Ryegrass, Italian plant response rating (0 to 100 scale)", "setting": "[22]; [29]", "result": 90},
      {"measurement": "Soybean plant response rating (0-100)", "setting": "soybean (Glycine max) [23]; [28]", "result": 50},
      {"measurement": "Soybean plant response rating (0 to 100 scale)", "setting": "soybean (Glycine max) [23]; [29]", "result": 90},
      {"measurement": "Wheat plant response rating (0-100)", "setting": "[24]; [28]", "result": 90},
      {"measurement": "Wheat plant response rating (0 to 100 scale)", "setting": "[24]; [29]", "result": 90},
      {"measurement": "Plant response rating, Barnyardgrass (0 to 100 scale, 0 is no effect and 100 is complete control)", "setting": "[25]", "result": 70},
      {"measurement": "Plant response rating, Ducksalad (0 to 100 scale, 0 is no effect and 100 is complete control)", "setting": "[26]", "result": 70},
      {"measurement": "Plant response rating, Rice (0 to 100 scale, 0 is no effect and 100 is complete control)", "setting": "rice (Oryza sativa)", "result": 10},
      {"measurement": "Plant response rating, Sedge, Umbrella (0 to 100 scale, 0 is no effect and 100 is complete control)", "setting": "[27]", "result": 60}
    ]}
  ]
}
